From patent publication US7951814B2, “Quinazolinedione derivatives as TRPA1 modulators” (Glenmark Pharmaceuticals, S.A., priority 2008, dated 2011) come the findings set out here.

The assay deals with T1, Human TRPA1 expressing CHO cells (Homo sapiens, UniProt O75762).
T1 construct: expressed in transfected cells; host or cells: CHO cells (under G-418 selection)
In words: 45Calcium uptake assay: inhibition of AITC induced cellular uptake of radioactive calcium. Format: cell-based. The note with it: AITC 30 μM; for inhibition at 1 µM: 1.0 μM test compound, read-out: Percentage inhibition at 1.0 μM; for inhibition at 1 µM / inhibition at 10 µM / IC50: human TRPA1 CHO cells; for inhibition at 10 µM: 10.0 μM test compound, read-out: Percentage inhibition at 10.0 μM; for IC50: read-out: IC50 value (range). As to the method: The illustrative examples of the present invention are screened for TRPA1 activity according to a modified procedure described in (a) Tóth, A. et al. Life Sciences (2003), 73, 487-498. ([…]. et al. Proc. Natl. Acad. Sci. U.S.A., (2007), 104, 13525-13530. The screening of the compounds can be carried out by other methods and procedures known to persons skilled in the art. Screening for TRPA1 Antagonist Using the ^45Calcium Uptake Assay The inhibition of TRPA1 receptor activation was measured as inhibition of allyl isothiocyanate (AITC) induced cellular uptake of radioactive calcium. […] Final concentration of DMSO in the reaction was 0.5% (v/v). […] Cells were seeded 24 h prior to the assay in 96 well plates so as to get 50,000 cells per well on the day of experiment. Cells were treated with test compounds for 10 min followed by addition of AITC at a final concentration of 30 μM and 5 μCi/ml ^45Ca^+2 for 3 min. […] Radioactivity in the lysate was measured in Packard Top count after addition of liquid scintillant. Concentration response curves were plotted as a % of maximal response obtained in the absence of test antagonist. IC50 value was calculated from concentration response curve by nonlinear regression analysis using GraphPad PRISM software.

Structures are written as SMILES. Some results are limits rather than exact numbers.

As a reminder, the inhibition is the relative decrease from the control value, in per cent. The term IC50 denotes the concentration that inhibits the measured activity by half.

T1 sequence (O75762 whole entry): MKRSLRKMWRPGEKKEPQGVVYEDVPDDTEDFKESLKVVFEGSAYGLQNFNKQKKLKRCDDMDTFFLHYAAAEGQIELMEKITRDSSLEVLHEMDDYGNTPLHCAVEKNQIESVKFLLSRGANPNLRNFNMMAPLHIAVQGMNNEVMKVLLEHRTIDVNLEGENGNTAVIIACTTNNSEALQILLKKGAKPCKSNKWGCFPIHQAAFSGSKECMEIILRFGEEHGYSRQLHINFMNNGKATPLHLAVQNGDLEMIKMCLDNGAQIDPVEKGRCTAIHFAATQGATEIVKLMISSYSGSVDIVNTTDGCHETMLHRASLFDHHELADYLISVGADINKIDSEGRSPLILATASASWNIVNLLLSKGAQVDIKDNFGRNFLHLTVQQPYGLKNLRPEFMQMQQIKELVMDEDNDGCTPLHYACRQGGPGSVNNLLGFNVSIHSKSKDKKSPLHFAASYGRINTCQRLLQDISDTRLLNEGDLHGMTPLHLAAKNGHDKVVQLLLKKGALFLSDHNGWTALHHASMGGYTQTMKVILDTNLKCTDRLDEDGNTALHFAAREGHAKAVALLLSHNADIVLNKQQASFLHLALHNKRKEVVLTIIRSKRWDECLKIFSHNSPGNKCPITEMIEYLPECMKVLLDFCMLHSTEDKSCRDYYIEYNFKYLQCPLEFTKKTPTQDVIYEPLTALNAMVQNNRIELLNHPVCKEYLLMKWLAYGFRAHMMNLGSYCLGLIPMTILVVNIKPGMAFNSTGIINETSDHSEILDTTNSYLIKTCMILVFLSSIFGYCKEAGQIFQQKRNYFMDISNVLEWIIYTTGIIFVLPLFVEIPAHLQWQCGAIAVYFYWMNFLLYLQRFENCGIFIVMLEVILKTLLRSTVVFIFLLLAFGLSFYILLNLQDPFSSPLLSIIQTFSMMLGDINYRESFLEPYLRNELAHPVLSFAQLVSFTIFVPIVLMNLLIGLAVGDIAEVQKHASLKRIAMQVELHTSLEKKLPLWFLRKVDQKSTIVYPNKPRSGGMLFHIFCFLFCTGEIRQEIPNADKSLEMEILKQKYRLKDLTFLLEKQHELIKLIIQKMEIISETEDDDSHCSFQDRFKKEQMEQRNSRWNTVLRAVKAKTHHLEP

On to `Cn1c(=O)c2c(CC(=O)Nc3nc(-c4cccc(Cl)c4F)cs3)cccc2n(C)c1=O` [Example 50, N1-[4-(3-Chloro-2-fluorophenyl)-1,3-thiazol-2-yl]-2-(1,3-dimethyl-2,4-dioxo-1,2,3,4-tetrahydro-5-quinazolinyl)acetamide], for which the inhibition at 1 µM stood at 95.3%, the inhibition at 10 µM stood at 98.9% and the 50% inhibitory concentration (IC50) was in the range of 50.1 to 100 nM.

On to `Cn1c(=O)c2c(CC(=O)Nc3nc(-c4ccc(Cl)cc4F)cs3)cccc2n(C)c1=O` [Example 51, N1-[4-(4-Chloro-2-fluorophenyl)-1,3-thiazol-2-yl]-2-(1,3-dimethyl-2,4-dioxo-1,2,3,4-tetrahydro-5-quinazolinyl)acetamide], for which the inhibition at 1 µM amounted to 97.5%, the inhibition at 10 µM was determined as 99.3% and the IC50 was greater than 100 nM.

With `Cn1c(=O)c2c(CC(=O)Nc3nc(-c4cc(Cl)ccc4F)cs3)cccc2n(C)c1=O` [Example 52, N1-[4-(5-Chloro-2-fluorophenyl)-1,3-thiazol-2-yl]-2-(1,3-dimethyl-2,4-dioxo-1,2,3,4-tetrahydro-5-quinazolinyl)acetamide], the inhibition at 1 µM turned out to be 92.5%, the inhibition at 10 µM was found to be 95.3% and the half-maximal inhibitory concentration (IC50) was greater than 100 nM.

Regarding `Cn1c(=O)c2c(CC(=O)Nc3nc(-c4c(F)cccc4Cl)cs3)cccc2n(C)c1=O` [Example 53, N1-[4-(2-Chloro-6-fluorophenyl)-1,3-thiazol-2-yl]-2-(1,3-dimethyl-2,4-dioxo-1,2,3,4-tetrahydro-5-quinazolinyl)acetamide], the inhibition at 1 µM was 33.1% and the inhibition at 10 µM came out at 88.6%.

For the compound `Cn1c(=O)c2c(CC(=O)Nc3nc(-c4ccc(F)cc4Cl)cs3)cccc2n(C)c1=O` [Example 54], the inhibition at 1 µM is 74.1%, the inhibition at 10 µM stood at 99.8% and the half-inhibitory concentration (IC50) was less than 50 nM.

For the compound `Cn1c(=O)c2c(CC(=O)Nc3nc(-c4ccc(Cl)c(C(F)(F)F)c4)cs3)cccc2n(C)c1=O` [Example 55, N1-[4-(4-Chloro, 3-trifluoromethylphenyl)-1,3-thiazol-2-yl]-2-(1,3-dimethyl-2,4-dioxo-1,2,3,4-tetrahydro-5-quinazolinyl)acetamide], the inhibition at 1 µM was found to be 100%, the inhibition at 10 µM was found to be 100% and the IC50 is less than 50 nM.

In the case of `Cn1c(=O)c2c(CC(=O)Nc3nc(-c4cc(C(F)(F)F)ccc4Cl)cs3)cccc2n(C)c1=O` [Example 56, N1-[4-(2-Chloro-5-trifuoromethylphenyl)-1,3-thiazol-2-yl]-2-(1,3-dimethyl-2,4-dioxo-1,2,3,4-tetrahydro-5-quinazolinyl)propanamide], the inhibition at 1 µM is 85%, the inhibition at 10 µM worked out at 99.8% and the concentration for half-maximal inhibition (IC50) is greater than 100 nM.

Consider `Cn1c(=O)c2c(CC(=O)Nc3nc(-c4ccc(OC(F)F)c(Cl)c4)cs3)cccc2n(C)c1=O` [Example 57, N1-{4-[3-Chloro-4-(difluoromethoxy)phenyl]-1,3-thiazol-2-yl}-2-(1,3-dimethyl-2,4-dioxo-1,2,3,4-tetrahydro-5-quinazolinyl)acetamide], for which the inhibition at 1 µM was 97.8%, the inhibition at 10 µM was determined as 99.7% and the IC50 is less than 50 nM.

Turning to `Cc1cc(-c2csc(NC(=O)Cc3cccc4c3c(=O)n(C)c(=O)n4C)n2)ccc1Cl` [Example 58, N1-[4-(4-Chloro-3-methylphenyl)-1,3-thiazol-2yl]-2-(1,3-dimethyl-2,4-dioxo-1,2,3,4-tetrahydro-5-quinazolinyl)acetamide], the inhibition at 1 µM is 94.2%, the inhibition at 10 µM stood at 96.7% and the half-maximal inhibitory concentration (IC50) was greater than 100 nM.

With `Cn1c(=O)c2c(CC(=O)Nc3nc(-c4ccc(OCC(F)(F)F)c(F)c4)cs3)cccc2n(C)c1=O` [Example 59, N1-{4-[3-fluoro-4-(2,2,2-trifluoroethoxy)phenyl]-1,3-thiazol-2yl}-2-(1,3-dimethyl-2,4-dioxo-1,2,3,4-tetrahydro-5-quinazolinyl)acetamide], the inhibition at 1 µM stood at 96.8%, the inhibition at 10 µM was found to be 100% and the concentration for half-maximal inhibition (IC50) is less than 50 nM.

For the compound `Cn1c(=O)c2c(CC(=O)Nc3nc(-c4ccc(OCC5CC5)c(F)c4)cs3)cccc2n(C)c1=O` [Example 60, N1-[4-(4-Cyclopropylmethoxy-3-fluorophenyl)-1,3-thiazol-2yl]-2-(1,3-dimethyl-2,4-dioxo-1,2,3,4-tetrahydro-5-quinazolinyl)acetamide], the inhibition at 1 µM worked out at 1.31% and the inhibition at 10 µM is 41.3%.

Consider `Cn1c(=O)n(CC2CC2)c(=O)c2c(CC(=O)Nc3nc(-c4ccc(C(F)(F)F)c(F)c4)cs3)cccc21` [Example 61, N1-[4-(3-Fluoro-4-trifluoromethylphenyl)-1,3-thiazol-2-yl]-2-(1-methyl-3-cyclopropyl-methyl-2,4-dioxo-1,2,3,4-tetrahydro-5-quinazolinyl)acetamide], for which the inhibition at 1 µM is 25% and the inhibition at 10 µM came to 60.4%.

As for `Cn1c(=O)c2c(CC(=O)Nc3nc(-c4c(F)ccc(F)c4F)cs3)cccc2n(C)c1=O` [Example 62], the inhibition at 1 µM is 59%, the inhibition at 10 µM is 94.2% and the half-inhibitory concentration (IC50) is greater than 100 nM.

In the case of `Cn1c(=O)c2c(CC(=O)Nc3nc(-c4cc(F)c(Cl)cc4Cl)cs3)cccc2n(C)c1=O` [Example 63, N1-[4-(2,4-Dichloro-5-fluorophenyl)-1,3-thiazol-2-yl]-2-(1,3-dimethyl-2,4-dioxo-1,2,3,4-tetrahydro-5-quinazolinyl)acetamide], the inhibition at 1 µM turned out to be 87.1%, the inhibition at 10 µM came to 96.9% and the half-inhibitory concentration (IC50) is greater than 100 nM.

For `Cn1c(=O)c2c(CC(=O)Nc3nc(-c4c(Cl)ccc(F)c4Cl)cs3)cccc2n(C)c1=O` [Example 64, N1-[4-(2,6Dichloro-3-fluorophenyl)-1,3-thiazol-2-yl]-2-(1,3-dimethyl-2,4-dioxo-1,2,3,4-tetrahydro-5-quinazolinyl)acetamide], the inhibition at 1 µM is 11.5% and the inhibition at 10 µM was 27%.

Regarding `Cn1c(=O)c2c(CC(=O)Nc3nc(-c4ccc(C(F)(F)F)c(F)c4F)cs3)cccc2n(C)c1=O` [Example 65, N1-[4-(2,3-Difluoro-4-trifluormethylphenyl)-1,3-thiazol-2-yl]-2-(1,3-dimethyl-2,4-dioxo-1,2,3,4-tetrahydro-5-quinazolinyl)acetamide], the inhibition at 1 µM turned out to be 99.4%, the inhibition at 10 µM was determined as 99.6% and the IC50 is less than 50 nM.

As for `Cn1c(=O)c2c(CC(=O)Nc3nc(-c4cc(F)c(C(F)(F)F)c(F)c4)cs3)cccc2n(C)c1=O` [Example 66, N1-{4-[3,5-Difluoro-4-trifluoromethylphenyl]-1,3-thiazol-2-yl}-2-(1,3-dimethyl-2,4-dioxo-1,2,3,4-tetrahydro-5-quinazolinyl)acetamide], the inhibition at 1 µM was 100%, the inhibition at 10 µM stood at 100% and the IC50 is less than 50 nM.

Take `Cn1c(=O)c2c(CC(=O)Nc3nc(-c4ccc(F)c(C(F)(F)F)c4F)cs3)cccc2n(C)c1=O` [Example 67, N1-{4-[2,4-Difluoro-3-trifluoromethylphenyl]-1,3-thiazol-2-yl}-2-(1,3-dimethyl-2,4-dioxo-1,2,3,4-tetrahydro-5-quinazolinyl)acetamide]: the inhibition at 1 µM is 97.8% and the concentration for half-maximal inhibition (IC50) was less than 50 nM. The inhibition at 3 µM (CHO, 3 μM test compound (printed in the 10.0 μM column), read-out: Percentage inhibition (3 μM)) amounted to 99.5%.

Turning to `Cn1c(=O)c2c(CC(=O)Nc3nc(-c4c(F)ccc(C(F)(F)F)c4F)cs3)cccc2n(C)c1=O` [Example 68, N1-{4-[2,6-Difluoro-3-trifluoromethylphenyl]-1,3-thiazol-2-yl}-2-(1,3-dimethyl-2,4-dioxo-1,2,3,4-tetrahydro-5-quinazolinyl)acetamide], the inhibition at 1 µM is 84.6%, the inhibition at 10 µM is 98.6% and the 50% inhibitory concentration (IC50) is greater than 100 nM.

For `Cn1c(=O)c2c(CC(=O)Nc3nc(-c4cc(F)c(OC(F)F)c(F)c4)cs3)cccc2n(C)c1=O` [Example 69], the inhibition at 1 µM came to 99.9%, the inhibition at 10 µM came out at 100% and the 50% inhibitory concentration (IC50) was less than 50 nM.

Regarding `Cn1c(=O)c2c(CC(=O)Nc3nc(-c4cc(F)c(OCC(F)(F)F)c(F)c4)cs3)cccc2n(C)c1=O` [Example 70, N1-{4-[3,5-Difluoro-4-(2,2,2-trifluoroethoxy)phenyl]-1,3-thiazol-2-yl}-2-(1,3-dimethyl-2,4-dioxo-1,2,3,4-tetrahydro-5-quinazolinyl)acetamide], the inhibition at 1 µM was found to be 100%, the inhibition at 10 µM is 99.9% and the IC50 was less than 50 nM.

Consider `COc1c(F)cc(-c2csc(NC(=O)Cc3cccc4c3c(=O)n(C)c(=O)n4C)n2)cc1F` [Example 71, N1-[4-(3,5-Difluoro-4-methoxyphenyl)-1,3-thiazol-2-yl]-2-(1,3-dimethyl-2,4-dioxo-1,2,3,4-tetrahydroquinazolin-5-yl)acetamide], for which the inhibition at 1 µM was found to be 83.6%, the inhibition at 10 µM was 98.9% and the half-inhibitory concentration (IC50) is less than 50 nM.
